“And” between values parts separate entries of the source, which are not always exact repeats. Equal values may be shown once. Read-outs that look alike come from different tables or passages of the source.
Experiments:
HDAC2 = HDAC2 (Homo sapiens, UniProt Q92769); assay: HDAC enzyme assay, HDAC2
mice [1] = assay: Chronic social defeat (CSD) and social interaction test; format: in vivo, mouse; details: after CSD; fluoxetine 20 mg/kg, compound 73 5 mg/kg, compound 101 50 mg/kg
Protocol: Additionally, when combined with a dose of Citalopram with lower activity, these compounds seemed to have an additive effect (See FIG. 10). The dose of Citalopram chosen for this experiment was based on literature stating 2 mg/kg should be subactive, but this dose was found still showing an effect. Mice then underwent chronic social defeat stress, in which the mice are exposed to an aggressive resident mouse for 5 minutes daily for 10 days and are then tested on the 11th day in the social interaction test. Mice treated with vehicle for 20 total days, beginning 10 days before the defeat, show reduced time spent in the interaction zone when a target mouse is present when compared with control mice. […] The percent of mice found to be resilient, defined as spending more time in the interaction zone than the lowest control (i.e. ˜52 s), is higher in HDAC6 inhibitor groups. All behavior testing done using NIH Swiss mice, age 6-10 weeks. Tukey post-hoc analysis: * P=0.01 to 0.05, ** P=0.001-0.01, ***P<0.001 compared with vehicle treated mice.
The effects were observed 30 minutes after acute 50 mg/kg i.p. injection, but not for the lower dose (5 mg/kg). Combination of subactive doses of the HDAC6 selective inhibitors (5 mg/kg) and citalopram (0.5 mg/kg) produced robust potentiation of anti-immobility activity (n=8-29 per condition). […] No difference was observed between HDAC6 WT and KO when treated with the vehicle (n=6-15 per condition). FIG. 16c is a timeline showing treatment period, social defeat and social interaction (SI) testing.
A pro-resilient phenotype in the mouse CSD paradigm after serotonin-selective KO of HDAC6 was previously reported (Espallergues et al, 2012). Whether a chronic pharmacological inhibition of HDAC6 can replicate that phenotype is studied. […] On day 21, 24 h after the last injection, the mice were tested in the social interaction test. […] Significant effects were also observed when data was evaluated in terms of proportion of mice reaching criterion for resiliency.

[2] = test system: histone H3 lysine 9 acetylation; assay: Histone H3K9 acetylation in vivo (Western blot, ChIP); design: species or system mouse; details: in vivo treatment
HDAC1 = HDAC1 (Homo sapiens, UniProt Q13547); assay: HDAC enzyme assay, HDAC1
mice [3] = assay: Elevated plus maze (EPM); format: in vivo, mouse; details: acute administration
[4] = Pharmacokinetics and brain bio-distribution in mice; format: in vivo, mouse; details: mouse; for Kp: brain, calculated over 2 hours
Protocol: […] Plasma samples were taken from all mice upon sacrifice. Brain samples were taken from the mice sacrificed at 5 and 15 minutes and 1 and 4 hours. The brain samples were homogenized in PBS and centrifuged at 14000 rpm for 5 minutes. The supernatant from the brain homogenate and the plasma samples were injected onto a LC/MS/MS for analysis. The compound level in the samples was determined by a standard curve in the appropriate matrix. Pharmacokinetic parameters were determined from the raw data by WinNonLin.

[5] = test system: α-tubulin K40 acetylation in cortex, hippocampus, DRN, cerebellum; assay: α-tubulin acetylation in brain regions after subchronic administration, WT and HDAC6 KO mice; format: in vivo, mouse
Protocol: Results are shown as percent change normalized to the vehicle treatment condition. The horizontal hard line depicts average and the dotted lines depict SEM of the vehicle treated wells. Representative Western blot images are presented. […] Representative Western blot images are presented. […] […] The changes in tubulin acetylation were measured in tissue lysates from cortex (ctx), hippocampus (Hpc), dorsal Raphe nucleus (DRN) and cerebellum (cb). The tubulin acetylation levels in drug-treated mice are expressed as percent change of the vehicle-treated mice of the corresponding genotype. The horizontal lines depict the average tubulin acetylation±SEM in the vehicle treated mice. The representative Western blot images show the changes induced by each drug treatment in the hippocampus (left column) and dorsal raphe (right column) of WT and HDAC6 KO mice.

Sequence of HDAC2 (Q92769 whole entry): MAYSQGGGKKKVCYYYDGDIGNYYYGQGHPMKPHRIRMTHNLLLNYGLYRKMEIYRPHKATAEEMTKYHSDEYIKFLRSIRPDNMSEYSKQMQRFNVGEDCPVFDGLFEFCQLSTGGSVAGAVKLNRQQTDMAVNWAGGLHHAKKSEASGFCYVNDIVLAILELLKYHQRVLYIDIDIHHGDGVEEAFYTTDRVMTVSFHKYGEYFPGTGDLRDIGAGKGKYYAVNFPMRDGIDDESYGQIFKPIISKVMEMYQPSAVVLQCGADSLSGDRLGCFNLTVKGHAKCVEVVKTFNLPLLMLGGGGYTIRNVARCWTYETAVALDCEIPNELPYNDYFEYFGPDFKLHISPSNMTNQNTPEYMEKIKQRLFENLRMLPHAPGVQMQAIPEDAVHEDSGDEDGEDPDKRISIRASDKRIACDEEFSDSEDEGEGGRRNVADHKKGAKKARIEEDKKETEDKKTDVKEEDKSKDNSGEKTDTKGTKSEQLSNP
Sequence of HDAC1 (Q13547 whole entry): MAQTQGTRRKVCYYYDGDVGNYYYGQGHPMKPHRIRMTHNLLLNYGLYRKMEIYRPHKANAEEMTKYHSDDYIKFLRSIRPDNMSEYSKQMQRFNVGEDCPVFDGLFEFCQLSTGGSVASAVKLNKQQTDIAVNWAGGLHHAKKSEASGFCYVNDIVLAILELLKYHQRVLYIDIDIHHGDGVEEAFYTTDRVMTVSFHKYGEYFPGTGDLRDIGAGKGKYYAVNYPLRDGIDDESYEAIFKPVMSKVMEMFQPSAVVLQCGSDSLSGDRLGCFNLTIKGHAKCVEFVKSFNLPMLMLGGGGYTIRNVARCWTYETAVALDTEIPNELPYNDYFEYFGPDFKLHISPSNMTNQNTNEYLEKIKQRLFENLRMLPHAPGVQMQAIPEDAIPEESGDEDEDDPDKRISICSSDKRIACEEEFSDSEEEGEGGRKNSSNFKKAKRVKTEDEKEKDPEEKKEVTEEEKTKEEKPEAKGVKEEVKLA

## O=C(NO)c1cnc(NC2(c3cccc(F)c3)CCCCC2)nc1 [Compound 101, 2-((1-(3-fluorophenyl)cyclohexyl)amino)-N-hydroxypyrimidine-5-carboxamide]
HDAC2
  HDAC2 fold versus HDAC6 (in brackets): (343.2x)
HDAC2; Table 3
  HDAC2 fold versus HDAC6 (in brackets): 342 x
Mice [1]
  percentage of resilient mice: 58%
[2]
  acetylation of histone 3 at lysine 9 in Western blot: did not significantly alter
HDAC1; Table 3
  HDAC1 fold versus HDAC6 (in brackets): 283 x
HDAC1; selectivity HDAC6 over HDAC1
  HDAC1 fold versus HDAC6 (in brackets): (283.5x)
Mice [3]
  behavioral changes / time in the open arms of the maze: neither compound 73 nor compound 101 produced behavioral changes
[4]; C57BL/6J, intraperitoneal, read-out: AUCBrain/AUCplasma
  Kp: 1.26
[4]; C57BL/6J, plasma, intraperitoneal, 5 mg/kg, read-out: 30 min plasma concentration (ng/ml) - 5 mg/kg
  concentration at 30 min: 496 ng/mL
[4]; C57BL/6J, plasma, intraperitoneal, 50 mg/kg, read-out: 30 min plasma concentration (ng/ml) - 50 mg/kg
  concentration at 30 min: 1360 ng/mL
[4]; C57BL/6J, plasma, ip, 5 mg/kg, mice, acute i.p. dosing, read-out: Cmax
  Cmax: 915 ng/mL
[4]; C57BL/6J, plasma, ip, mice, acute i.p. dosing, read-out: T½ plasma (converted)
  half-life: 30 min
[4]; intraperitoneal, read-out: AUCBrain/AUCplasma ratio
  Kp: > 1
[4]; plasma, intraperitoneal, acute 50 mg/kg injection, read-out: plasma level at t=30 minutes
  concentration at 30 min: 1360 ng/mL and 4.1 µM
[4]; plasma, intraperitoneal, read-out: plasma concentration after two hours
  concentration at 2 h: < 10 ng/mL
[4]; plasma, intraperitoneal, read-out: plasmatic half-life
  half-life: 12 min
[5]; HDAC6 KO mice, identical treatment regimens
  α-tubulin acetylation over baseline levels: did not produce increases
[5]; wild-type mice, 24 h, 4 h, 30 m before sacrifice, compound 73 5 mg/kg, compound 101 50 mg/kg
  α-tubulin acetylation in cortex, hippocampus, DRN, cerebellum: significant increases

From patent US20150250786A1, “PYRIMIDINE HYDROXY AMIDE COMPOUNDS AS PROTEIN DEACETYLASE INHIBITORS AND METHODS OF USE THEREOF” (THE TRUSTEES OF THE UNIVERSITY OF PENNSYLVANIA, priority 2012, published 2015)
